Structures are written as SMILES.

These results are taken from patent US9771369B2, “Compounds and methods for kinase modulation, and indications therefor” (Plexxikon Inc., priority 2014, dated 2017).

The target of one assay is c-Kit kinase (Homo sapiens (Human), UniProt P10721). The experiment in a line: c-Kit biochemical assay (AlphaScreen kinase activity). The essentials: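 AlphaScreen: c-Kit phosphorylates biotin-(E4Y)3 (100 nM) at 10 μM ATP, pH 7.2 HEPES buffer with Mg/Mn, 5% DMSO, 1 h room temperature; streptavidin donor and PY30 acceptor beads detect product. Second format: 100 μM ATP, 30 nM biotin-(E4Y)10, pH 7.5. IC50 from 8-point 1:3 dilution curves.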
Sequence of c-Kit kinase (P10721 26-976): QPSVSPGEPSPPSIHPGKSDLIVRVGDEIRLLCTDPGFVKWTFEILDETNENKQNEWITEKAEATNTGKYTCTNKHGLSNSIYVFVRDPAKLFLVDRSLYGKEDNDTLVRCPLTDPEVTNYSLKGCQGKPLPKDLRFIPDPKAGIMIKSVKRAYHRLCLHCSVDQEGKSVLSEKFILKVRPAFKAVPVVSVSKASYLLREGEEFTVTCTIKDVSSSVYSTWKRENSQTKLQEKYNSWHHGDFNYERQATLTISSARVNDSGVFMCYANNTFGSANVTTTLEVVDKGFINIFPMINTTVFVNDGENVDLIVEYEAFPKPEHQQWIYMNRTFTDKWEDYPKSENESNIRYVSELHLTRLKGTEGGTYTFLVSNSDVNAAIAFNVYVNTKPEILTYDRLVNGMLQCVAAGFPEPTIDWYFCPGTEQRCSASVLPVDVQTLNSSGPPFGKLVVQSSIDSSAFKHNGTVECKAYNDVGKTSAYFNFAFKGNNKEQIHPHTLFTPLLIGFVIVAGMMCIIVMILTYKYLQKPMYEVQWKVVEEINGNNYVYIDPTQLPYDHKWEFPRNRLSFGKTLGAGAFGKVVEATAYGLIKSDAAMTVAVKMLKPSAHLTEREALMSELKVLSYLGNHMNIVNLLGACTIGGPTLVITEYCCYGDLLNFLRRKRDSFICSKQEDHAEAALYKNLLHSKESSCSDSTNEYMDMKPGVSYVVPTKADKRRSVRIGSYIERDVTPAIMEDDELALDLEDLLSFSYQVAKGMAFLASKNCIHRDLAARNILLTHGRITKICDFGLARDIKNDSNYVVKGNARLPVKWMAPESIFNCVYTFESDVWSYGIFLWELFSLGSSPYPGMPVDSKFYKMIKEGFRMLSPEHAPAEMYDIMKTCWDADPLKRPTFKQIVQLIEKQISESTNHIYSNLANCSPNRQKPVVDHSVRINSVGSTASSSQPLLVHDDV
A general note: Bead proximity is the source of the signal in Alpha formats.

Assay [1] concerns BaF3-FL KIT D816V or BaF3-FL KIT V560G/D816V cell line. The experiment in a line: Cell-based assays of c-Kit mutant kinase activity (cell proliferation, ATPlite). The conditions noted are these: at least one of the c-kit cell assays of Example 7. The essentials: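 BaF3 cells dependent on transfected full-length human KIT D816V or V560G/D816V (pCI-Neo, CMV promoter) were seeded at 1×10^4 cells/well and exposed to 8-point 1:3 dilutions from 10 μM top (0.2% DMSO) for three days at 37° C. ATPlite luminescence gave cell number; IC50 from concentration-response.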
(In general: In ATP-based viability assays light output follows the ATP content of the culture.)

The IC50 is the point on the concentration scale where inhibition reaches its midpoint. Higher therefore signals weaker potency. As for `CCOc1ccc(-c2[nH]c(C3(CC)CCN(c4ncnc5[nH]c(C)cc45)CC3)nc2C)cc1` [P-3145, 4-[4-[5-(4-ethoxyphenyl)-4-methyl-1H-imidazol-2-yl]-4-ethyl-1-piperidyl]-6-methyl-7H-pyrrolo[2,3-d]pyrimidine], the IC50 was 1 to 10 µM against c-Kit kinase and less than 10 µM in assay [1].
In the same order, the values of `COc1ccc(-c2[nH]c(C3CCN(c4ncnc5[nH]c(-c6ccnc(OC)c6)cc45)CC3)nc2C(F)(F)F)cc1` [P-3146, 4-[4-[5-(4-methoxyphenyl)-4-(trifluoromethyl)-1H-imidazol-2-yl]-1-piperidyl]-6-(2-methoxy-4-pyridyl)-7H-pyrrolo[2,3-d]pyrimidine] are 0.0001 to 1 µM and less than 10 µM.
In the same order, the values of `COc1ccc(-c2[nH]c(C3CCN(c4ncnc5[nH]c(-c6ccc(C#N)cc6)cc45)CC3)nc2C(F)(F)F)cc1` [P-3148, 4-[4-[4-[5-(4-methoxyphenyl)-4-(trifluoromethyl)-1H-imidazol-2-yl]-1-piperidyl]-7H-pyrrolo[2,3-d]pyrimidin-6-yl]benzonitrile] are 0.0001 to 1 µM and less than 10 µM.
In the same order, the values of `COc1cc(-c2cc3c(N4CCC(c5nc(C)c(-c6ccc(C(F)(F)F)cc6)[nH]5)CC4)ncnc3[nH]2)ccn1` [P-3149, 6-(2-methoxy-4-pyridyl)-4-[4-[4-methyl-5-[4-(trifluoromethyl)phenyl]-1H-imidazol-2-yl]-1-piperidyl]-7H-pyrrolo[2,3-d]pyrimidine] are 1 to 10 µM and less than 10 µM.
For the compound `Cc1cc2c(N3CCC(C)(c4nc(C)c(-c5ccc6c(c5)OCO6)[nH]4)CC3)ncnc2[nH]1` [P-3150, 4-[4-[5-(1,3-benzodioxol-5-yl)-4-methyl-1H-imidazol-2-yl]-4-methyl-1-piperidyl]-6-methyl-7H-pyrrolo[2,3-d]pyrimidine], the IC50 is 1 to 10 µM at c-Kit kinase and less than 10 µM in assay [1].
For `Cc1cc2c(N3CCC(C)(c4nc(C)c(-c5ccc6c(c5)OCCO6)[nH]4)CC3)ncnc2[nH]1` [P-3151, 4-[4-[5-(2,3-dihydro-1,4-benzodioxin-6-yl)-4-methyl-1H-imidazol-2-yl]-4-methyl-1-piperidyl]-6-methyl-7H-pyrrolo[2,3-d]pyrimidine], the IC50 was 1 to 10 µM against c-Kit kinase and less than 10 µM in assay [1].
For `Cc1cc2c(N3CCC(C)(c4nc(C)c(-c5ccc6c(c5)OC(F)(F)O6)[nH]4)CC3)ncnc2[nH]1` [P-3152, 4-[4-[5-(2,2-difluoro-1,3-benzodioxol-5-yl)-4-methyl-1H-imidazol-2-yl]-4-methyl-1-piperidyl]-6-methyl-7H-pyrrolo[2,3-d]pyrimidine], the IC50 at c-Kit kinase is 1 to 10 µM; in assay [1], less than 10 µM.
`COc1ccc(-c2[nH]c(C3(C)CCN(c4ncnc5[nH]c(-c6cnn(C(F)F)c6)cc45)CC3)nc2C)cc1` [P-3153, 6-[1-(difluoromethyl)pyrazol-4-yl]-4-[4-[5-(4-methoxyphenyl)-4-methyl-1H-imidazol-2-yl]-4-methyl-1-piperidyl]-7H-pyrrolo[2,3-d]pyrimidine]: the results for the IC50 (at c-Kit kinase; in assay [1]) were 0.0001 to 1 µM and less than 10 µM, respectively.
In the same order, the values of `COc1ccc(-c2[nH]c(C3(C)CCN(c4ncnc5[nH]c(-c6cnn(C(F)F)c6)cc45)CC3)nc2C)cc1C` [P-3154, 6-[1-(difluoromethyl)pyrazol-4-yl]-4-[4-[5-(4-methoxy-3-methyl-phenyl)-4-methyl-1H-imidazol-2-yl]-4-methyl-1-piperidyl]-7H-pyrrolo[2,3-d]pyrimidine] are 0.0001 to 1 µM and less than 10 µM.
`Cc1nc(C2(C)CCN(c3ncnc4[nH]c(-c5cnn(C(F)F)c5)cc34)CC2)[nH]c1-c1ccc2c(c1)OCO2` [P-3155, 4-[4-[5-(1,3-benzodioxol-5-yl)-4-methyl-1H-imidazol-2-yl]-4-methyl-1-piperidyl]-6-[1-(difluoromethyl)pyrazol-4-yl]-7H-pyrrolo[2,3-d]pyrimidine]: the 50% inhibitory concentration (IC50) against c-Kit kinase is 0.0001 to 1 µM; in assay [1], less than 10 µM.
Take `COc1ccc(-c2[nH]c(C3(C)CCN(c4ncnc5[nH]c(-c6ccc(OC)nc6)cc45)CC3)nc2C)cc1` [P-3156, 4-[4-[5-(4-methoxyphenyl)-4-methyl-1H-imidazol-2-yl]-4-methyl-1-piperidyl]-6-(6-methoxy-3-pyridyl)-7H-pyrrolo[2,3-d]pyrimidine]: the values for the IC50 (on c-Kit kinase; in assay [1]) were 0.0001 to 1 µM and less than 10 µM, respectively.
In the same order, the values of `COc1ccc(-c2cc3c(N4CCC(C)(c5nc(C)c(-c6ccc(OC)c(C)c6)[nH]5)CC4)ncnc3[nH]2)cn1` [P-3157, 4-[4-[5-(4-methoxy-3-methyl-phenyl)-4-methyl-1H-imidazol-2-yl]-4-methyl-1-piperidyl]-6-(6-methoxy-3-pyridyl)-7H-pyrrolo[2,3-d]pyrimidine] are 0.0001 to 1 µM and less than 10 µM.
With `COc1ccc(-c2cc3c(N4CCC(C)(c5nc(C)c(-c6ccc7c(c6)OCO7)[nH]5)CC4)ncnc3[nH]2)cn1` [P-3158, 4-[4-[5-(1,3-benzodioxol-5-yl)-4-methyl-1H-imidazol-2-yl]-4-methyl-1-piperidyl]-6-(6-methoxy-3-pyridyl)-7H-pyrrolo[2,3-d]pyrimidine], the IC50 at c-Kit kinase was 0.0001 to 1 µM; in assay [1] it was less than 10 µM.
In the same order, the values of `Cc1nc(C2(C)CCN(c3ncnc4[nH]c(-c5ccc(C#N)cc5)cc34)CC2)[nH]c1-c1ccc2c(c1)OCO2` [P-3159, 4-[4-[4-[5-(1,3-benzodioxol-5-yl)-4-methyl-1H-imidazol-2-yl]-4-methyl-1-piperidyl]-7H-pyrrolo[2,3-d]pyrimidin-6-yl]benzonitrile] are 0.0001 to 1 µM and less than 10 µM.
As for `CCOc1ccc(-c2[nH]c(C3(C)CCN(c4ncnc5[nH]c(-c6ccc(C#N)cc6)cc45)CC3)nc2C)cc1C` [P-3160, 4-[4-[4-[5-(4-ethoxy-3-methyl-phenyl)-4-methyl-1H-imidazol-2-yl]-4-methyl-1-piperidyl]-7H-pyrrolo[2,3-d]pyrimidin-6-yl]benzonitrile], the IC50 against c-Kit kinase is 0.0001 to 1 µM; in assay [1], less than 10 µM.
In the same order, the values of `CCOc1ccc(-c2[nH]c(C3(C)CCN(c4ncnc5[nH]c(-c6ccc(C#N)cc6)cc45)CC3)nc2C)cc1` [P-3161, 4-[4-[4-[5-(4-ethoxyphenyl)-4-methyl-1H-imidazol-2-yl]-4-methyl-1-piperidyl]-7H-pyrrolo[2,3-d]pyrimidin-6-yl]benzonitrile] are 0.0001 to 1 µM and less than 10 µM.
Regarding `Cc1nc(C2CCN(c3ncnc4[nH]c(-c5ccc(C#N)cc5)cc34)CC2)[nH]c1-c1ccc(C(F)F)cc1` [P-3162, 4-[4-[4-[5-[4-(difluoromethyl)phenyl]-4-methyl-1H-imidazol-2-yl]-1-piperidyl]-7H-pyrrolo[2,3-d]pyrimidin-6-yl]benzonitrile], the results for the IC50 (against c-Kit kinase; in assay [1]) were 1 to 10 µM and less than 10 µM, respectively.
In the case of `COc1ccc(-c2[nH]c(C3(C)CCN(c4ncnc5[nH]c(-c6ccc(C#N)cc6)cc45)CC3)nc2C)cc1F` [P-3163, 4-[4-[4-[5-(3-fluoro-4-methoxy-phenyl)-4-methyl-1H-imidazol-2-yl]-4-methyl-1-piperidyl]-7H-pyrrolo[2,3-d]pyrimidin-6-yl]benzonitrile], the IC50 at c-Kit kinase was 0.0001 to 1 µM; in assay [1], less than 10 µM.
Take `Cc1nc(C2(C)CCN(c3ncnc4[nH]c(-c5ccc(C#N)cc5)cc34)CC2)[nH]c1-c1ccc(C(F)F)cc1` [P-3164, 4-[4-[4-[5-[4-(difluoromethyl)phenyl]-4-methyl-1H-imidazol-2-yl]-4-methyl-1-piperidyl]-7H-pyrrolo[2,3-d]pyrimidin-6-yl]benzonitrile]: the IC50 is 0.0001 to 1 µM against c-Kit kinase and less than 10 µM in assay [1].
In the same order, the values of `Cc1cc2c(N3CCC(C)(c4nc(C)c(-c5ccc(C(F)(F)F)cc5)[nH]4)CC3)ncnc2[nH]1` [P-3165, 6-methyl-4-[4-methyl-4-[4-methyl-5-[4-(trifluoromethyl)phenyl]-1H-imidazol-2-yl]-1-piperidyl]-7H-pyrrolo[2,3-d]pyrimidine] are 1 to 10 µM and less than 10 µM.
In the same order, the values of `COc1cccc(-c2[nH]c(C3(C)CCN(c4ncnc5[nH]c(C)cc45)CC3)nc2C)c1` [P-3166, 4-[4-[5-(3-methoxyphenyl)-4-methyl-1H-imidazol-2-yl]-4-methyl-1-piperidyl]-6-methyl-7H-pyrrolo[2,3-d]pyrimidine] are 1 to 10 µM and less than 10 µM.
In the same order, the values of `COc1cccc(-c2[nH]c(C3(C)CCN(c4ncnc5[nH]c(-c6ccc(C#N)cc6)cc45)CC3)nc2C)c1` [P-3167, 4-[4-[4-[5-(3-methoxyphenyl)-4-methyl-1H-imidazol-2-yl]-4-methyl-1-piperidyl]-7H-pyrrolo[2,3-d]pyrimidin-6-yl]benzonitrile] are 0.0001 to 1 µM and less than 10 µM.
For the compound `COc1cccc(-c2[nH]c(C3(C)CCN(c4ncnc5[nH]c(-c6cnn(C(F)F)c6)cc45)CC3)nc2C)c1` [P-3168, 6-[1-(difluoromethyl)pyrazol-4-yl]-4-[4-[5-(3-methoxyphenyl)-4-methyl-1H-imidazol-2-yl]-4-methyl-1-piperidyl]-7H-pyrrolo[2,3-d]pyrimidine], the IC50 against c-Kit kinase was 0.0001 to 1 µM; in assay [1], less than 10 µM.
In the same order, the values of `COc1cccc(-c2[nH]c(C3(C)CCN(c4ncnc5[nH]c(-c6ccc(OC)nc6)cc45)CC3)nc2C)c1` [P-3169, 4-[4-[5-(3-methoxyphenyl)-4-methyl-1H-imidazol-2-yl]-4-methyl-1-piperidyl]-6-(6-methoxy-3-pyridyl)-7H-pyrrolo[2,3-d]pyrimidine] are 0.0001 to 1 µM and less than 10 µM.
